Measurements as given in patent publication US5010058A, “3,5,6-substituted derivatives of 1,2-O-isopropylidene-α,D-glucofuranose and intermediates for preparing these derivatives” (501 Greenwich Pharmaceuticals Incorporated, priority 1989, dated 1991).

Legend:
[1] = tested on: BUD-8 skin cell fibroblasts; test: Proliferation of BUD-8 skin cell fibroblasts (3H-thymidine uptake); type: cell-based, human; conditions: for 3H-Thymidine uptake by BUD-8 skin cells: triplicates ± SD
Method: The human skin cell fibroblast line, BUD-8, was originally derived from the normal skin of a person and can now be obtained from the American Type Culture Collection.
The number of BUD-8 cells was expanded for use by culture in 25 cm^2 flasks at 37° C. in an atmosphere of 5% CO2 in air. At approximately 4-5 five day intervals, or when confluence was reached, the cells were passaged. This was accomplished by detaching the cells with a Teflon scraper, washing and reseeding the cells at a lower density into fresh tissue culture flasks.
The effect of these compound on the proliferative capacity of human BUD-8 skin fibroblasts was measured with the use of a ^3 H-thymidine incorporation assay using culture conditions which were similar to those used for the Con-A blastogenesis assay, described previously. Cultured skin cells were detached from the surface of tissue culture flasks mechanically with a Teflon scraper. The cells were washed, resuspended in incubation medium and the viabilities were determined. These cells were then plated in triplicate at a density of 2×10^3 cells/0.1 ml/microtiter well for the proliferation assays. […] Eighteen hours later, each of the BUD-8 cultures was examined morphologically for evidence of compound-induced toxicity such as cell rounding or granularity. The thymidine-pulsed cells were then precipitated and the amount of ^3 H-thymidine incorporation was counted in a liquid scintillation counter. […]
^a Experimental compounds were first suspended in DMSO or ethanol,
^b The effect of experimental compounds on the proliferation of BUD8

[2] = tested on: normal spleen cells / splenic T-lymphocytes (Con-A stimulated); conditions: THERAFECTIN comparison; cited from earlier work
[3] = in vivo; cited from earlier work

Structure (SMILES)	anti-proliferative effect on skin cells [1]	inhibition at 1 µg/mL ([1]; Homo sapiens, Fibroblast, compound 1 ug/ml, percent change from no compound, read-out: 3H-Thymidine uptake by BUD-8 skin cells, % effect)	inhibition at 10 µg/mL ([1]; Homo sapiens, Fibroblast, compound 10 ug/ml, percent change from no compound, read-out: 3H-Thymidine uptake by BUD-8 skin cells, % effect)	inhibition at 25 µg/mL ([1]; Homo sapiens, Fibroblast, compound 25 ug/ml, percent change from no compound, read-out: 3H-Thymidine uptake by BUD-8 skin cells, % effect)	inhibition at 100 µg/mL ([1]; Homo sapiens, Fibroblast, compound 100 ug/ml, percent change from no compound, read-out: 3H-Thymidine uptake by BUD-8 skin cells, % effect)	inhibition at 300 µg/mL ([1]; Homo sapiens, Fibroblast, compound 300 ug/ml, percent change from no compound, read-out: 3H-Thymidine uptake by BUD-8 skin cells, % effect)	inhibition at 750 µg/mL ([1]; Homo sapiens, Fibroblast, compound 750 ug/ml, percent change from no compound, read-out: 3H-Thymidine uptake by BUD-8 skin cells, % effect)	3H-Thymidine uptake by BUD-8 skin cells ([1]; compound 1 ug/ml)	3H-Thymidine uptake by BUD-8 skin cells ([1]; compound 10 ug/ml)	3H-Thymidine uptake by BUD-8 skin cells ([1]; compound 25 ug/ml)	3H-Thymidine uptake by BUD-8 skin cells ([1]; compound 100 ug/ml)	3H-Thymidine uptake by BUD-8 skin cells ([1]; compound 300 ug/ml)	3H-Thymidine uptake by BUD-8 skin cells ([1]; compound 750 ug/ml)	usual concentration for significant inhibition [2]	toxicity [3]	utility in rheumatoid arthritis [3]
CCCCCCCOC1C(C(C)O)OC2OC(C)(C)OC21 [Ex. 3, 1,2-O-Isopropylidene-3-O-(n-heptyl)-6-deoxy-α,D-glucofuranose]	anti-proliferative effect that was statistically significant	58%	49%	19%	30%	66%	43%	2,589 ± 202 cpm	3,139 ± 232 cpm	4,978 ± 632 cpm	4,288 ± 723 cpm	2,067 ± 302 cpm	3,496 ± 1,084 cpm			
CN(C)CCCO[C@@H]1[C@H]2OC(C)(C)O[C@H]2O[C@@H]1[C@H](O)CO [THERAFECTIN, 1,2-O-Isopropylidene-3-O-3('N,N'-dimethylamino-n-propyl)-α,D-glucofuranose]														1,000 ug/ml	little toxicity	demonstrated utility in managing the signs and symptoms of rheumatoid arthritis
